The source of these data is US10472346B2, “Potent gamma-secretase modulators” (The General Hospital Coporation, priority 2014, dated 2019).

Assay [1] concerns APP-CTF (C-terminal fragment). As to the kind of experiment: Accumulation of APP-CTFs in brain extracts (immunoblot, anti-APP carboxyl-terminal antibody). The assay is classed as in vivo. The conditions noted are these: administered doses of 5, 25 or 50 mg/kg. On the procedure: FIG. 7: Protein blots of indicated proteins from subjects administered vehicle and Compound 1 at doses of 5, 25 and 50 mg/kg.
Brain extracts which were prepared using 1.0% SDS run on SDS-PAGE, transferred to PVDF membranes and immunoblots were performed using an anti-APP carboxyl-terminal antibody.

Another assay deals with Aβ40 levels. As to the kind of experiment: Effects of 7 days treatment on mouse plasma and brain Aβ40 levels. The conditions noted are these: for percent reduction of Aβ40 levels in brain: mouse brain; for percent reduction of Aβ40 levels in plasma: mouse plasma. The assay is classed as in vivo, male C57BL/6J mouse. On the procedure:
FIG. 3: The effects of Compound 1 after 7-days treatment on Aβ40 levels in male C57BL/6J mouse plasma A) (plasma) where the percent reduction was 62%, 81% and 91% for dosages of 10, 25, and 50 mg/kg, respectively and male C57BL/6J mouse brain B) where the percent reduction was 46%, 69% and 82% for dosages of 10, 25, and 50 mg/kg, respectively.
Effects of Compound 1 (7 Days Treatment) on Mouse Plasma and Brain Aβ40 Levels. The effects of Compound 1 after 7-days treatment on Aβ40 levels in mouse plasma and brain are depicted in FIG. 3A (plasma) and FIG. 3B (brain). For FIG. 3A, the percent reduction was 62%, 81% and 91% for dosages of 10, 25, and 50 mg/kg, respectively. For FIG. 3B, the percent reduction was 46%, 69% and 82% for dosages of 10, 25, and 50 mg/kg, respectively.

Take `COc1nc(-c2cc(C)c(N[C@@H](C)c3ccc(F)cc3)nn2)ccc1-n1cnc(C)c1` [Compound 1, (S)—N-(1-(4-fluorophenyl)ethyl)-6-(6-methoxy-5-(4-methyl-1H-imidazol-1-yl)pyridin-2-yl)-4-methylpyridazin-3-amine]: in assay [1], the “accumulation of APP-CTF (C-terminal fragment)” value is given as “does not cause accumulation of APP-CTF”. For the same molecule, the “percent reduction of Aβ40 levels in brain” value in the assay on Aβ40 levels (10 mg/kg) turned out to be 46%; with Aβ40 levels (25 mg/kg) it was 69%; in the assay with Aβ40 levels (50 mg/kg) it was 82%. Further, the “percent reduction of Aβ40 levels in plasma” value stood at 62% in the assay on Aβ40 levels (10 mg/kg), 81% in the assay on Aβ40 levels (25 mg/kg) and 91% in the assay on Aβ40 levels (50 mg/kg).
